Measured values taken from ChEMBL document CHEMBL1201862, “PubChem BioAssay data set” (2004).
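Values below derive from 48-hour exposures of cells grown in 96-well plates, with endpoints linearly interpolated between the two concentrations bracketing the appropriate inhibition level. GI50 = concentration required for 50% inhibition of growth.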 Calls of active or inactive are those of the source. Rule as the data show it: active = GI50 up to about 1.1 µM and inactive = higher.

Columns and labels:
Assay in all cases: NCI anticancer screen, dose series, 48 h
786-0 = tested on: 786-0
A498 = tested on: A498
A549 = tested on: A549
ACHN = tested on: ACHN
CCRF-CEM = tested on: CCRF-CEM
COLO 205 = tested on: COLO 205
DU-145 = tested on: DU-145
EKVX = tested on: EKVX
HCT-116 = tested on: HCT-116
HCT-15 = tested on: HCT-15
HOP-62 = tested on: HOP-62
HOP-92 = tested on: HOP-92
HT-29 = tested on: HT-29
Hs-578T = tested on: Hs-578T
IGROV-1 = tested on: IGROV-1
K562 = tested on: K562
KM12 = tested on: KM12
LOX IMVI = tested on: LOX IMVI
M14 = tested on: M14
MCF7 = tested on: MCF7
MDA-MB-231 = tested on: MDA-MB-231
MDA-MB-435 = tested on: MDA-MB-435
MDA-N = tested on: MDA-N
MOLT-4 = tested on: MOLT-4
Malme-3M = tested on: Malme-3M
NCI-H226 = tested on: NCI-H226
NCI-H23 = tested on: NCI-H23
NCI/ADR-RES = tested on: NCI/ADR-RES
OVCAR-3 = tested on: OVCAR-3
OVCAR-5 = tested on: OVCAR-5
OVCAR-8 = tested on: OVCAR-8
PC-3 = tested on: PC-3
RPMI-8226 = tested on: RPMI-8226
SF-268 = tested on: SF-268
SF-295 = tested on: SF-295
SK-MEL-28 = tested on: SK-MEL-28
SK-MEL-2 = tested on: SK-MEL-2
SK-MEL-5 = tested on: SK-MEL-5
SK-OV-3 = tested on: SK-OV-3
SN12C = tested on: SN12C
SNB-75 = tested on: SNB-75
SR = tested on: SR
SW-620 = tested on: SW-620
TK-10 = tested on: TK-10
U-251 = tested on: U-251
UACC-62 = tested on: UACC-62
UO-31 = tested on: UO-31
CAKI-1 = tested on: CAKI-1
HCC 2998 = tested on: HCC 2998
HL-60 = tested on: HL-60
NCI-H460 = tested on: NCI-H460
NCI-H522 = tested on: NCI-H522
OVCAR-4 = tested on: OVCAR-4
RXF 393 = tested on: RXF 393
SF-539 = tested on: SF-539
SNB-19 = tested on: SNB-19
T47D = tested on: T47D
UACC-257 = tested on: UACC-257

CSC1=N/C(=C\c2cccs2)C(=O)N1CN1CCCCC1
GI50 (786-0): 65.6 µM (inactive) | GI50 (A498): > 100 µM (inactive) | GI50 (A549): > 100 µM (inactive) | GI50 (ACHN): 28 µM (inactive) | GI50 (CCRF-CEM): 18.7 µM (inactive) | GI50 (COLO 205): 70.6 µM (inactive) | GI50 (DU-145): > 100 µM (inactive) | GI50 (EKVX): 24 µM (inactive) | GI50 (HCT-116): 52.5 µM (inactive) | GI50 (HCT-15): 37.2 µM | GI50 (HOP-62): > 100 µM (inactive) | GI50 (HOP-92): 28.2 µM (inactive) | GI50 (HT-29): 25.1 µM (inactive) | GI50 (Hs-578T): 18.3 µM (inactive) | GI50 (IGROV-1): 33.5 µM (inactive) | GI50 (K562): 27.1 µM (inactive) | GI50 (KM12): 50.2 µM (inactive) | GI50 (LOX IMVI): 23.1 µM (inactive) | GI50 (M14): > 100 µM (inactive) | GI50 (MCF7): 45.2 µM (inactive) | GI50 (MDA-MB-231): > 100 µM (inactive) | GI50 (MDA-MB-435): > 100 µM (inactive) | GI50 (MDA-N): > 100 µM (inactive) | GI50 (MOLT-4): 64.9 µM (inactive) | GI50 (Malme-3M): 28.3 µM (inactive) | GI50 (NCI-H226): 57.8 µM (inactive) | GI50 (NCI-H23): > 100 µM (inactive) | GI50 (NCI/ADR-RES): 50.9 µM (inactive) | GI50 (OVCAR-3): > 100 µM (inactive) | GI50 (OVCAR-5): > 100 µM (inactive) | GI50 (OVCAR-8): 51.3 µM (inactive) | GI50 (PC-3): > 100 µM (inactive) | GI50 (RPMI-8226): 22.1 µM (inactive) | GI50 (SF-268): 37.8 µM (inactive) | GI50 (SF-295): > 100 µM (inactive) | GI50 (SK-MEL-28): > 100 µM (inactive) | GI50 (SK-MEL-2): > 100 µM (inactive) | GI50 (SK-MEL-5): 66.8 µM (inactive) | GI50 (SK-OV-3): > 100 µM (inactive) | GI50 (SN12C): > 100 µM (inactive) | GI50 (SNB-75): 31.9 µM (inactive) | GI50 (SR): 32.2 µM (inactive) | GI50 (SW-620): 36.9 µM (inactive) | GI50 (TK-10): > 100 µM (inactive) | GI50 (U-251): 79.6 µM (inactive) | GI50 (UACC-62): 93.3 µM (inactive) | GI50 (UO-31): 23.3 µM (inactive)

Cc1ccc(S(=O)(=O)n2c3c(c4ccccc42)CCN2CCC(Br)C[C@@H]32)cc1 (stereo partly drawn)
GI50 (786-0): 16.6 µM (inactive) | GI50 (A498): 22.6 µM (inactive) | GI50 (A549): 16.7 µM (inactive) | GI50 (ACHN): 17 µM (inactive) | GI50 (CAKI-1): 11.8 µM (inactive) | GI50 (CCRF-CEM): 12.2 µM (inactive) | GI50 (COLO 205): 16.3 µM (inactive) | GI50 (DU-145): 15.1 µM (inactive) | GI50 (EKVX): 19.1 µM (inactive) | GI50 (HCC 2998): 15 µM (inactive) | GI50 (HCT-15): 12.1 µM | GI50 (HL-60): 5.12 µM (inactive) | GI50 (HOP-62): 15 µM (inactive) | GI50 (HOP-92): 18.1 µM (inactive) | GI50 (HT-29): 13.3 µM (inactive) | GI50 (Hs-578T): 13.7 µM (inactive) | GI50 (IGROV-1): 10.1 µM (inactive) | GI50 (K562): 5.11 µM (inactive) | GI50 (KM12): 8.81 µM (inactive) | GI50 (LOX IMVI): 13.9 µM (inactive) | GI50 (M14): 12.9 µM (inactive) | GI50 (MCF7): 9.42 µM (inactive) | GI50 (MDA-MB-231): 16.5 µM (inactive) | GI50 (MDA-MB-435): 3.79 µM (inactive) | GI50 (MDA-N): 4.42 µM (inactive) | GI50 (MOLT-4): 9.73 µM (inactive) | GI50 (Malme-3M): 13.2 µM (inactive) | GI50 (NCI-H226): 13.4 µM (inactive) | GI50 (NCI-H23): 11.7 µM (inactive) | GI50 (NCI-H460): 14.9 µM (inactive) | GI50 (NCI-H522): 6.34 µM (inactive) | GI50 (NCI/ADR-RES): 16.2 µM (inactive) | GI50 (OVCAR-3): 11.1 µM (inactive) | GI50 (OVCAR-4): 13.1 µM (inactive) | GI50 (OVCAR-5): 17.3 µM (inactive) | GI50 (OVCAR-8): 12.6 µM (inactive) | GI50 (PC-3): 13.1 µM (inactive) | GI50 (RPMI-8226): 6.18 µM (inactive) | GI50 (RXF 393): 12.9 µM (inactive) | GI50 (SF-268): 16.1 µM (inactive) | GI50 (SF-295): 11 µM (inactive) | GI50 (SF-539): 16.7 µM (inactive) | GI50 (SK-MEL-28): 11.9 µM (inactive) | GI50 (SK-MEL-2): 16.3 µM (inactive) | GI50 (SK-MEL-5): 7.74 µM (inactive) | GI50 (SK-OV-3): 15.7 µM (inactive) | GI50 (SNB-19): 15.4 µM (inactive) | GI50 (SNB-75): 12.2 µM (inactive) | GI50 (SR): 5.11 µM (inactive) | GI50 (SW-620): 12.8 µM (inactive) | GI50 (T47D): 6.11 µM (inactive) | GI50 (TK-10): 15.6 µM (inactive) | GI50 (U-251): 12.4 µM (inactive) | GI50 (UACC-257): 7.23 µM (inactive) | GI50 (UACC-62): 11.9 µM (inactive) | GI50 (UO-31): 11.9 µM (inactive)
